PMC12203311, “Design, synthesis, in silico and in vitro evaluation of pyrrole–indole hybrids as dual tubulin and aromatase inhibitors with potent anticancer activities” (RSC Advances, 2025)
Like-named read-outs stand apart in the source and are kept apart here. One block for each molecule: values may come before it.

How the values were obtained:
[1] = tested on: SK-MEL-28; test: NCI60 five-dose screen; format: cell-based; settings: Homo sapiens, SK-MEL-28, melanoma; for CC50: read-out: LC50 (the source's name)
[2] = tested on: CAKI-1; test: NCI60 five-dose screen; format: cell-based; settings: Homo sapiens, CAKI-1, renal cancer; for CC50: read-out: LC50 (the source's name)
[3] = tested on: HL-60 (TB); test: NCI60 five-dose screen; format: cell-based; settings: Homo sapiens, leukemia; for CC50: read-out: LC50 (the source's name)
[4] = tested on: SR; test: NCI60 five-dose screen; format: cell-based; settings: Homo sapiens, leukemia; for CC50: read-out: LC50 (the source's name)
[5] = tested on: NCI-H460; test: NCI60 five-dose screen; format: cell-based; settings: Homo sapiens, NCI-H460, NSC lung cancer; for CC50: read-out: LC50 (the source's name)
[6] = tested on: HOP-62; test: NCI60 five-dose screen; format: cell-based; settings: Homo sapiens, HOP-62, NSC lung cancer; for CC50: read-out: LC50 (the source's name)
[7] = tested on: NCI-H23; test: NCI60 five-dose screen; format: cell-based; settings: Homo sapiens, NCI-H23, NSC lung cancer; for CC50: read-out: LC50 (the source's name)
[8] = tested on: RXF 393; test: NCI60 five-dose screen; format: cell-based; settings: Homo sapiens, RXF 393, renal cancer; for CC50: read-out: LC50 (the source's name)
[9] = biological target: T1, porcine brain tubulin (Sus scrofa, UniProt P02550+P02554); test: Tubulin polymerisation assay (fluorescence-based); format: biochemical; settings: 10 µM, 37 °C
T1 construct: a solution containing porcine brain tubulin (2 mg mL^−1); purchased Cytoskeleton BK011P; host or cells: porcine brain (tissue-purified)
T1 sequence (P02554 whole entry): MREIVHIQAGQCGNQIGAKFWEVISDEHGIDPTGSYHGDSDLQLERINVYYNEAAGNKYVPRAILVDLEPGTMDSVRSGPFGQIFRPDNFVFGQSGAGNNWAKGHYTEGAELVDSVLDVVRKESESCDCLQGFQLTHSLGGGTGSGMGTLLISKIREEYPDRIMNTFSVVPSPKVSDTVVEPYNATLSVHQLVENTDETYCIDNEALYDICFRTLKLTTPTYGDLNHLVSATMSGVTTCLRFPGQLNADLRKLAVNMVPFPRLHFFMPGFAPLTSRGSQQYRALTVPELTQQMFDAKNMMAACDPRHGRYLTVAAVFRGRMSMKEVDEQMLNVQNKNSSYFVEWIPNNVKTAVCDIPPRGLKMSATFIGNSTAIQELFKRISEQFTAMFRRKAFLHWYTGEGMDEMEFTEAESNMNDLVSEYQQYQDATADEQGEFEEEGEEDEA
T1 sequence (P02550 whole entry): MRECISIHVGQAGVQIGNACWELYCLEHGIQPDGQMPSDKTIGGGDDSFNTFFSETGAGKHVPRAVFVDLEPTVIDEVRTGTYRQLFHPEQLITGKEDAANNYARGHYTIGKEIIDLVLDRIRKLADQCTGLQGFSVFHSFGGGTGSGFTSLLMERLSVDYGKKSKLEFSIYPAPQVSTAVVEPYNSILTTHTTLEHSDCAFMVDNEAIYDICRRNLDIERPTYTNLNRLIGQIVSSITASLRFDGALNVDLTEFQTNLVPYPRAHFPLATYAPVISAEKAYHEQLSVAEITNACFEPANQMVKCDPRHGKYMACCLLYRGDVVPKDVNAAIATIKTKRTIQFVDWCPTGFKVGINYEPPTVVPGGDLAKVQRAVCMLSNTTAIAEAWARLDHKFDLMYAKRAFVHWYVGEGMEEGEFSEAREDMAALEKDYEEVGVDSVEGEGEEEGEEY
Method: The tubulin polymerisation experimental protocol followed the method described in this literature.[28] The experimental was using fluorescence-based assay kit (Cytoskeleton, catalog no. BK011P). In Brief, 5 µL of test compounds was added to a 96-well plate, then mix with 50 µL of a solution containing porcine brain tubulin (2 mg mL^−1) in buffer with 20% glycerol and 1 mM GTP. A microplate reader (Varioskan™ LUX multimode microplate reader, Thermo Scientific™) was used to measure fluorescence intensity every 60 seconds for 60 minutes, with excitation at 360 nm and emission at 450 nm, maintained at 37 °C throughout the experiment.

[10] = tested on: COLO 205; test: NCI60 five-dose screen; format: cell-based, human; settings: for CC50: read-out: LC50 (the source's name)
[11] = Homo sapiens, COLO 205, COLO 205, colon cancer
[12] = Homo sapiens, COLO 205, colon cancer

SMILES: O=C(N/N=C/c1cc[nH]c1)c1[nH]c2ccc(Br)cc2c1-c1ccccc1 [Derivative 3b, (E)-N′-((1H-Pyrrol-3-yl)methylene)-5-bromo-3-phenyl-1H-indole-2-carbohydrazide]
GI50 [1]: 5.75 µM
CC50 [1]: 44.4 µM
GI50 [2]: 0.776 µM
CC50 [2]: 44.1 µM
GI50 [3]: 0.598 µM
CC50 [3]: > 100 µM
GI50 [5]: 0.657 µM
CC50 [5]: 46 µM
GI50 [6]: 2.01 µM
CC50 [6]: 61.4 µM
GI50 [7]: 1.87 µM
CC50 [7]: 33.9 µM
GI50 [8]: 1.78 µM
CC50 [8]: 46.5 µM
tubulin inhibition [9]: weak tubulin inhibitors
CC50 [10, 11]: 20.4 µM
GI50 [10, 12]: 1.23 µM

SMILES: CCOC(=O)c1cc(/C=N/NC(=O)c2[nH]c3ccc(Br)cc3c2-c2ccccc2)c[nH]1 [Derivative 3v, Ethyl (E)-4-((2-(5-bromo-3-phenyl-1H-indole-2-carbonyl)hydrazono)methyl)-1H-pyrrole-2-carboxylate]
GI50 [1]: 4.73 µM
CC50 [1]: 48.5 µM
GI50 [2]: 3.2 µM
CC50 [2]: 40.2 µM
GI50 [3]: 4.68 µM
CC50 [3]: > 100 µM
GI50 [5]: 3.49 µM
CC50 [5]: 34.3 µM
GI50 [6]: 6.66 µM
CC50 [6]: 69.2 µM
GI50 [7]: 3.42 µM
CC50 [7]: 40.4 µM
GI50 [8]: 2.56 µM
CC50 [8]: 33 µM
CC50 [10, 11]: 34.8 µM
GI50 [10, 12]: 3.51 µM

SMILES: CCOC(=O)c1ccc(/C=N/NC(=O)c2[nH]c3ccc(Br)cc3c2-c2ccccc2)[nH]1 [Derivative 3i, Ethyl (E)-5-((2-(5-bromo-3-phenyl-1H-indole-2-carbonyl)hydrazono)methyl)-1H-pyrrole-2-carboxylate]
GI50 [1]: 2.65 µM
CC50 [1]: 94.5 µM
GI50 [2]: 0.961 µM
CC50 [2]: 74.2 µM
GI50 [3]: 1.84 µM
CC50 [3]: > 100 µM
GI50 [5]: 2.8 µM
CC50 [5]: 41.4 µM
GI50 [6]: 3.65 µM
CC50 [6]: > 100 µM
GI50 [7]: 2.59 µM
CC50 [7]: 43.2 µM
GI50 [8]: 1.69 µM
CC50 [8]: 66.4 µM
CC50 [10, 11]: 36.9 µM
GI50 [10, 12]: 3.15 µM

SMILES: Cc1[nH]c(/C=N/NC(=O)c2[nH]c3ccc(Br)cc3c2-c2ccccc2)c(C)c1[N+](=O)[O-] [Derivative 3r, (E)-5-Bromo-N′-((3,5-dimethyl-4-nitro-1H-pyrrol-2-yl)methylene)-3-phenyl-1H-indole-2-carbohydrazide]
GI50 [1]: 3.56 µM
CC50 [1]: 38.7 µM
GI50 [2]: 2.29 µM
CC50 [2]: 33.1 µM
GI50 [3]: 2.31 µM
CC50 [3]: > 100 µM
GI50 [4]: 2.04 µM
CC50 [4]: > 100 µM
GI50 [5]: 1.87 µM
CC50 [5]: 8.05 µM
GI50 [6]: 2.09 µM
CC50 [6]: 11.7 µM
GI50 [7]: 2.46 µM
CC50 [7]: 26.3 µM
GI50 [8]: 1.7 µM
CC50 [8]: 15.9 µM
CC50 [10, 11]: 7.51 µM
GI50 [10, 12]: 1.9 µM

SMILES: CCOC(=O)c1c[nH]c(/C=N/NC(=O)c2[nH]c3ccc(Br)cc3c2-c2ccccc2)c1 [Derivative 3j, Ethyl (E)-5-((2-(5-bromo-3-phenyl-1H-indole-2-carbonyl)hydrazono)methyl)-1H-pyrrole-3-carboxylate]
GI50 [1]: 4.56 µM
CC50 [1]: 45.8 µM
GI50 [2]: 1.46 µM
CC50 [2]: 40.5 µM
GI50 [3]: 1.5 µM
CC50 [3]: 9.88 µM
GI50 [4]: 0.948 µM
CC50 [4]: > 100 µM
GI50 [5]: 2.41 µM
CC50 [5]: 23.1 µM
GI50 [6]: 2.78 µM
CC50 [6]: 54.4 µM
GI50 [7]: 3.06 µM
CC50 [7]: 46.4 µM
GI50 [8]: 1.36 µM
CC50 [8]: 22 µM
CC50 [10, 11]: 55.2 µM
GI50 [10, 12]: 2.49 µM

SMILES: O=C(N/N=C/c1ccc(C(=O)N2CCOCC2)[nH]1)c1[nH]c2ccc(Br)cc2c1-c1ccccc1 [Derivative 3n, (E)-5-Bromo-N′-((5-(morpholine-4-carbonyl)-1H-pyrrol-2-yl)methylene)-3-phenyl-1H-indole-2-carbohydrazide]
GI50 [1]: 6.1 µM
CC50 [1]: > 100 µM
GI50 [2]: 1.46 µM
CC50 [2]: > 100 µM
GI50 [3]: 1.84 µM
CC50 [3]: 8.56 µM
GI50 [4]: 0.405 µM
CC50 [4]: 38.9 µM
GI50 [5]: 2.49 µM
CC50 [5]: 54.1 µM
GI50 [6]: 3.36 µM
CC50 [6]: 69.2 µM
GI50 [7]: 2.83 µM
CC50 [7]: 69.8 µM
GI50 [8]: 1.06 µM
CC50 [8]: 14.7 µM
CC50 [10, 11]: 37.5 µM
GI50 [10, 12]: 3.12 µM

More lines, main results first:

RFU in tubulin polymerization assay [9]: ~50 arbitrary units
SMILES: O=C(N/N=C/c1ccc([N+](=O)[O-])[nH]1)c1[nH]c2ccc(Br)cc2c1-c1ccccc1 [Derivative 3p, (E)-5-Bromo-N′-((5-nitro-1H-pyrrol-2-yl)methylene)-3-phenyl-1H-indole-2-carbohydrazide]
GI50 [1]: 2.24 µM
CC50 [1]: 43.5 µM
GI50 [2]: 0.411 µM
CC50 [2]: 34.9 µM
GI50 [3]: 0.374 µM
CC50 [3]: > 100 µM
GI50 [4]: 0.354 µM
CC50 [4]: > 100 µM
GI50 [5]: 0.421 µM
CC50 [5]: 45.9 µM
GI50 [6]: 0.606 µM
CC50 [6]: 39.5 µM
GI50 [7]: 1.45 µM
CC50 [7]: 35.4 µM
GI50 [8]: 0.411 µM
CC50 [8]: 41.2 µM
CC50 [10, 11]: 8.08 µM
GI50 [10, 12]: 1.52 µM

tubulin inhibition [9]: weak tubulin inhibitors
SMILES: Cn1cccc1/C=N/NC(=O)c1[nH]c2ccc(Br)cc2c1-c1ccccc1 [Derivative 3d, (E)-5-Bromo-N′-((1-methyl-1H-pyrrol-2-yl)methylene)-3-phenyl-1H-indole-2-carbohydrazide]
GI50 [1]: 4.7 µM
CC50 [1]: > 100 µM
GI50 [2]: 0.255 µM
CC50 [2]: > 100 µM
GI50 [3]: 0.317 µM
CC50 [3]: > 100 µM
GI50 [5]: 0.442 µM
CC50 [5]: > 100 µM
GI50 [6]: 0.57 µM
CC50 [6]: > 100 µM
GI50 [7]: 0.447 µM
CC50 [7]: > 100 µM
GI50 [8]: 0.28 µM
CC50 [8]: > 100 µM
CC50 [10, 11]: > 100 µM
GI50 [10, 12]: 0.366 µM

tubulin inhibition [9]: weak tubulin inhibitors
SMILES: O=C(N/N=C/c1[nH]ccc1Cl)c1[nH]c2ccc(Br)cc2c1-c1ccccc1 [Derivative 3g, (E)-5-Bromo-N′-((3-chloro-1H-pyrrol-2-yl)methylene)-3-phenyl-1H-indole-2-carbohydrazide]
GI50 [1]: 0.909 µM
CC50 [1]: 47.5 µM
GI50 [2]: 0.445 µM
CC50 [2]: 36.9 µM
GI50 [3]: 0.891 µM
CC50 [3]: > 100 µM
GI50 [5]: 0.448 µM
CC50 [5]: 34.3 µM
GI50 [6]: 3.8 µM
CC50 [6]: 60.8 µM
GI50 [7]: 0.884 µM
CC50 [7]: 34.4 µM
GI50 [8]: 0.346 µM
CC50 [8]: 42.1 µM
CC50 [10, 11]: 40.3 µM
GI50 [10, 12]: 1.66 µM

RFU in tubulin polymerization assay [9]: ~50 arbitrary units
SMILES: O=C(N/N=C/c1cc(Br)c[nH]1)c1[nH]c2ccc(Br)cc2c1-c1ccccc1 [Derivative 3e, (E)-5-Bromo-N′-((4-bromo-1H-pyrrol-2-yl)methylene)-3-phenyl-1H-indole-2-carbohydrazide]
GI50 [1]: 0.612 µM
CC50 [1]: 43.9 µM
GI50 [2]: 0.329 µM
CC50 [2]: 29 µM
GI50 [3]: 0.327 µM
CC50 [3]: > 100 µM
GI50 [5]: 0.353 µM
CC50 [5]: 43.2 µM
GI50 [6]: 0.546 µM
CC50 [6]: > 100 µM
GI50 [7]: 0.298 µM
CC50 [7]: 26.9 µM
GI50 [8]: 0.497 µM
CC50 [8]: 37.9 µM
CC50 ([10]; COLO 205, colon cancer): 0.884 µM
CC50 [10, 11]: 0.89 µM
GI50 [10, 12]: 0.192 µM
